One experiment deals with T1, microsomal h-COX2 (Homo sapiens, UniProt P35354).
T1 construct: made in house; host or cells: baculovirus infected SF9 cells (microsomal preparation)
T1 sequence (P35354 18-604): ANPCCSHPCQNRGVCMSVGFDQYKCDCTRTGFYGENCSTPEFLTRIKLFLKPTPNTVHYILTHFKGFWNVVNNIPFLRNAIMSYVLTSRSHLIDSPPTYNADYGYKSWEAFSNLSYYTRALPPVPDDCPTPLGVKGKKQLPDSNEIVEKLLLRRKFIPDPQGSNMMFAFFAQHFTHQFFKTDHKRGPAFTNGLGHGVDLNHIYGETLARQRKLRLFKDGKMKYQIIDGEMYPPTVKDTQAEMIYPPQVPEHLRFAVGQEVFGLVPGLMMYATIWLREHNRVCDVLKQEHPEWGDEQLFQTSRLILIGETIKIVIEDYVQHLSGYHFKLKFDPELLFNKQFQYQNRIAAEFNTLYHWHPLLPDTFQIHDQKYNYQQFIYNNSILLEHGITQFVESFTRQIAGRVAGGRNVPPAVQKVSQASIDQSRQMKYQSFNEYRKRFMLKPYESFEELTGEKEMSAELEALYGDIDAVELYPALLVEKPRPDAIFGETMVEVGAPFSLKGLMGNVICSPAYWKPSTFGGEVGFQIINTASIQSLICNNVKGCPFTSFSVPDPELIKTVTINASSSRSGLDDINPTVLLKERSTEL
The experiment can be described thus: Microsomal assay, inhibition of h-COX2 (PGE2 by EIA). It counts as biochemical. The following applies: microsomal preparation from baculovirus infected SF9 cells; 1 hour preincubation; 0.1 μM arachidonic acid; read-out: COX-2: IC50. How it is done: Inhibitory activity against microsomal h-COX2 was assessed against a microsomal preparation from baculovirus infected SF9 cells. An aliquot of microsomal preparation was thawed slowly on ice and a 1/40,000 dilution prepared from it into the assay buffer (sterile water, degassed with argon containing 100 mM HEPES (pH 7.4), 10 mM EDTA (pH7.4), 1 mM phenol, 1 mM reduced glutathione, 20 mg/ml gelatin and 0.001 mM Hematin). Once diluted the enzyme solution was then sonicated for 5 seconds (Branson sonicator, setting 4, 1 cm tip) to ensure a homogeneous suspension. 155 μl enzyme solution was then added to each well of a 96-well microtitre plate containing either 5 μl test compound (40× required test concentration) or 5 μl DMSO for controls. Plates were then mixed and incubated at room temperature for 1 hour. Following the incubation period, 40 μl of 0.5 μM arachidonic acid was added to each well to give a final concentration of 0.1 μM. Plates were then mixed and incubated for exactly 10 minutes (room temperature) prior to addition of 25 μl 1M HCl (hydrochloric acid) to each well to stop the reaction. 25 μl of 1M NaOH (sodium hydroxide) was then added to each well to neutralise the solution prior to determination of PGE2 levels by enzyme immunoassay (EIA).
The following IC50 values for inhibition of COX-2 and COX-1 were obtained from the microsomal assay for compounds of the invention: […]

A further experiment addresses COX-1 (Homo sapiens, UniProt P23219). In words: Microsomal assay, inhibition of COX-1. The format is biochemical.

Where only a bound is given, the exact number is not on record here.

Sequence of COX-1 (P23219 24-599): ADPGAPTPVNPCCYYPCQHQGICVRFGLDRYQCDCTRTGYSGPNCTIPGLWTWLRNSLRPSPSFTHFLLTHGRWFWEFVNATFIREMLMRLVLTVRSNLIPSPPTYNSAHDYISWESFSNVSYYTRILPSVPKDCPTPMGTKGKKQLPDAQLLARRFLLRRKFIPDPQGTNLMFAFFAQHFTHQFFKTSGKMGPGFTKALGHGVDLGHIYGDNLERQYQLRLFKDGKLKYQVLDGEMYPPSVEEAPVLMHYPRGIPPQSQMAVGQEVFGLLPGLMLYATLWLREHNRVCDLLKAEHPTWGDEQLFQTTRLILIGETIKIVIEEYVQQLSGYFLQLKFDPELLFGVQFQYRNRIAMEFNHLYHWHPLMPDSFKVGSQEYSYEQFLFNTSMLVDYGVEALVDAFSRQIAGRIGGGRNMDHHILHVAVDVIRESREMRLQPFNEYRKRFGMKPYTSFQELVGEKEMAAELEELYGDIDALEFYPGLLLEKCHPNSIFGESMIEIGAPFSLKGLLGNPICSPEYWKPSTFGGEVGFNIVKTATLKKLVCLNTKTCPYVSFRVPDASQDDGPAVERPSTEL

Take `Cc1cc(-c2ccc(S(C)(=O)=O)cn2)nc(NCc2ccccc2)n1` [Example 1]: the IC50 – broadly, the midpoint of a concentration-inhibition curve – on microsomal h-COX2 was 51 nM; against COX-1, 23100 nM.

As to `Cc1cccc(CN(C)c2nc(-c3ccc(S(C)(=O)=O)cn3)cc(C(F)(F)F)n2)n1` [Example 3, [4-(5-Methanesulfonyl-pyridin-2-yl)-6-trifluoromethyl-pyrimidin-2-yl]-methyl-(6-methyl-pyridin-2-ylmethyl)-amine], the values for the IC50 on microsomal h-COX2 and against COX-1 were 5 nM and 67100 nM, respectively.

Turning to `CS(=O)(=O)c1ccc(-c2cc(C(F)(F)F)nc(NC3CCCCC3)n2)nc1` [Example 5, Cyclohexyl-[4-(5-methanesulfonyl-pyridin-2-yl)-6-trifluoromethyl-pyrimidin-2-yl]-amine], the IC50 on microsomal h-COX2 is 19 nM; against COX-1, above 100000 nM.

The values are drawn from US7235560B2, “Pyrimidine derivative as selective COX-2 inhibitors” (priority 2002, dated 2007).
